The values below come from publication PMC7482845, “G10 is a direct activator of human STING” (PLoS ONE, 2020).

Experiment [1] has as its target T1, AQ variant of human STING (Homo sapiens, UniProt Q86WV6, G230A/R293Q).
T1 construct: expressed in transfected cells
Description: Luciferase (ISRE.ISG reporter) assay in HEK293T cells stably expressing AQ hSTING. In kind it is cell-based. The text has this:
• a) Stable STING expressing cells. Stable HEK293T STING-expressing cell lines were generated using plasmids purchased from Invivogen, CA, USA, that contain STING cDNA cloned into the pUNO-1 vector under the hEF1-HTLV promoter as well as the Blasticidin selection cassette. The human STING plasmids corresponding to the R232, H232 and HAQ variants were directly procured from Invivogen while the AQ and Q variants were created by mismatch PCR using cDNA from HAQ.STING and R232.STING variants respectively. These vectors were individually transfected into HEK293T cells using Lipofectamine (Invitrogen) and transfected cells were expanded under Blasticidin selection. These cells were further subjected to clonal selection using the limiting dilution method to obtain clonally pure populations of HEK293T cells expressing each of the five human STING variants. Clones with minimal ligand independent activation of STING were chosen for cellular experiments. • b) N-His R232.hSTING HEK293T cells. […]
[…] clonally selected HEK293T-hSTING-Luciferase cells or control HEK293T-Luciferase cells were seeded in 384-well plates in growth medium and stimulated with known STING agonists or novel compounds. Supernatants were removed after 20 hours of treatment and secretory reporter gene activity was measured using the Quanti-Luc detection system (Invivogen) on a Spectramax i3X luminometer.

Experiment [2] has as its target T2, R232 variant of human STING (THP-1-Dual KI-hSTING-R232 cells) (Homo sapiens, UniProt Q86WV6, H232R).
T2 construct: host or cells: THP-1-Dual KI-hSTING-R232
Description: Western blot of pSTING and pIRF3 in THP1-R232 knock in cells. In kind it is cell-based. The settings on record: immunoblot, 2 hours, R232 STING in HAQ knockout background. As for the experimental part:
HEK293T cells were procured from ATCC. THP-1 and THP-1-Dual KI-hSTING-R232 cells which contained the R232 version of STING was knocked in to THP1 cells in which the HAQ version was ablated, were procured from Invivogen, CA, USA.
5 x 10^5 cells were seeded in 24-well plates in 500 μl growth medium and stimulated with novel compounds at 10μM. After 2 hours of treatment cells were harvested by centrifugation and cell pellets were lysed in RIPA buffer (20mM Tris-Cl, 150mM NaCl, 0.5mM EDTA, 1% NP40, 0.05% SDS) containing 1x phosphatase inhibitor cocktail 3 (Sigma) and 1x protease inhibitor (Roche) to extract the soluble fraction of protein. 10 μg of extracted protein was electrophoresed in 10% SDS-PAGE gels and transferred onto Immobilon-P membranes (Millipore). […] Anti-rabbit HRP label secondary antibody (Abcam) and Clarity Max™ western ECL substrate (Biorad—cat# 1705062) were used for visualization of bands using a BioRad XRS plus imager.
A general note: A western blot detects proteins with antibodies after separation by electrophoresis.

T2 sequence (Q86WV6 whole entry H232R): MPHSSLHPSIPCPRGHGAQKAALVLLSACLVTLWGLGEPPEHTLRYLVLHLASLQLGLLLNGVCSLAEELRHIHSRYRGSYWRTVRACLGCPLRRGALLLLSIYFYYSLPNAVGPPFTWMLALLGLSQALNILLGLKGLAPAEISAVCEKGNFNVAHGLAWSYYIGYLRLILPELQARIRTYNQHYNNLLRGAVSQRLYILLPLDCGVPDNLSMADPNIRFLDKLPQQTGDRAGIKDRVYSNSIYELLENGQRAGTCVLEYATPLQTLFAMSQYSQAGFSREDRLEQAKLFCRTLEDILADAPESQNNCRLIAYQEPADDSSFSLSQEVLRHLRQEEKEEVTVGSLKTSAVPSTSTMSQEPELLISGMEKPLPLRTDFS
T1 sequence (Q86WV6 whole entry G230A/R293Q): as the sequence (Q86WV6 whole entry H232R) above, with G230A, R232H, R293Q counted along it

Consider `O=C(NCc1ccco1)c1ccc2c(c1)N(Cc1c(F)cccc1Cl)C(=O)CS2` [Compound G10, 4-(2-Chloro-6-fluorobenzyl)-N-(furan-2-ylmethyl)-3-oxo-3,4-dihydro-2H-benzo[b][1,4]thiazine-6-carboxamide], for which the “activity against the AQ variant” value in experiment [1] is recorded as “barely active”. Further, the “phosphorylation of STING and IRF3 in THP1-R232 cells” value in experiment [2] was “led to phosphorylation of STING and IRF3”.
